Reference: US20250236608A1, “EGFR INHIBITORS” (Blueprint Medicines Corporation, priority 2022, published 2025)

Columns and labels:
[1] = molecular target: pEGFR (Tyr1068) in PC-9 cells (Ex19Del) (Homo sapiens (Human), UniProt P00533, DEL746-750); test: PC-9 pEGFR AlphaLISA assay; assay type: cell-based; conditions: 4 hours incubation, p-EGFR (Tyr1068) AlphaLISA, read-out: Ext pEGFR_PC-9 Ex19Del IC50
Procedure, shortened: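 First, cells settled overnight in 10% FBS medium. Second, a 10-point, 4-fold series of test agents was applied for 4 h at 37° C. Third, lysates were probed with AlphaLISA acceptor and donor beads, incubated overnight in the dark. Last, IC50 was taken from the dose-response.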

EGFR (d746-750) = EGFR (d746-750) (Homo sapiens (Human), UniProt P00533, DEL746-750); test: Biochemical EGFR inhibition assay, EGFR (d746-750); conditions: Caliper mobility shift; 1.0 mM ATP or ATP Km; read-out: Enz EGFR_Exon19-del746-750 IC50
Sequence of EGFR (d746-750) (P00533 other isoform, or with tags, fused parts or gaps del 1-694/del 746-750 limits assumed): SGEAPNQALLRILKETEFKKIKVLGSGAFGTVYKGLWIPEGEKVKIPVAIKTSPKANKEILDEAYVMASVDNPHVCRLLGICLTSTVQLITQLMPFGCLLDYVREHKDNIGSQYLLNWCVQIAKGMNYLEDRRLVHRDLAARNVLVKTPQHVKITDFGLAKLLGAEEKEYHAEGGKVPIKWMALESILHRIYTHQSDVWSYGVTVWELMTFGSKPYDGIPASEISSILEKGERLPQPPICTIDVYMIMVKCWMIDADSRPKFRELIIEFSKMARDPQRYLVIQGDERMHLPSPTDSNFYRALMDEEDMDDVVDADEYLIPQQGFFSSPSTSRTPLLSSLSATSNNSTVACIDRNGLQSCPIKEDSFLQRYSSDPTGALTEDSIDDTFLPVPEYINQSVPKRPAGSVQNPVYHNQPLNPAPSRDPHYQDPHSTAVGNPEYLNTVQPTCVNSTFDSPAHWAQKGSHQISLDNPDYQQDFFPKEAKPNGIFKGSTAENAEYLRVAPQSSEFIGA

EGFR L858R = EGFR L858R (Homo sapiens (Human), UniProt P00533, L858R); test: Biochemical EGFR inhibition assay, EGFR L858R; conditions: Caliper mobility shift; 1.0 mM ATP or ATP Km; read-out: Enz EGFR_L858R IC50
Sequence of EGFR L858R (P00533 25-1210 L858R): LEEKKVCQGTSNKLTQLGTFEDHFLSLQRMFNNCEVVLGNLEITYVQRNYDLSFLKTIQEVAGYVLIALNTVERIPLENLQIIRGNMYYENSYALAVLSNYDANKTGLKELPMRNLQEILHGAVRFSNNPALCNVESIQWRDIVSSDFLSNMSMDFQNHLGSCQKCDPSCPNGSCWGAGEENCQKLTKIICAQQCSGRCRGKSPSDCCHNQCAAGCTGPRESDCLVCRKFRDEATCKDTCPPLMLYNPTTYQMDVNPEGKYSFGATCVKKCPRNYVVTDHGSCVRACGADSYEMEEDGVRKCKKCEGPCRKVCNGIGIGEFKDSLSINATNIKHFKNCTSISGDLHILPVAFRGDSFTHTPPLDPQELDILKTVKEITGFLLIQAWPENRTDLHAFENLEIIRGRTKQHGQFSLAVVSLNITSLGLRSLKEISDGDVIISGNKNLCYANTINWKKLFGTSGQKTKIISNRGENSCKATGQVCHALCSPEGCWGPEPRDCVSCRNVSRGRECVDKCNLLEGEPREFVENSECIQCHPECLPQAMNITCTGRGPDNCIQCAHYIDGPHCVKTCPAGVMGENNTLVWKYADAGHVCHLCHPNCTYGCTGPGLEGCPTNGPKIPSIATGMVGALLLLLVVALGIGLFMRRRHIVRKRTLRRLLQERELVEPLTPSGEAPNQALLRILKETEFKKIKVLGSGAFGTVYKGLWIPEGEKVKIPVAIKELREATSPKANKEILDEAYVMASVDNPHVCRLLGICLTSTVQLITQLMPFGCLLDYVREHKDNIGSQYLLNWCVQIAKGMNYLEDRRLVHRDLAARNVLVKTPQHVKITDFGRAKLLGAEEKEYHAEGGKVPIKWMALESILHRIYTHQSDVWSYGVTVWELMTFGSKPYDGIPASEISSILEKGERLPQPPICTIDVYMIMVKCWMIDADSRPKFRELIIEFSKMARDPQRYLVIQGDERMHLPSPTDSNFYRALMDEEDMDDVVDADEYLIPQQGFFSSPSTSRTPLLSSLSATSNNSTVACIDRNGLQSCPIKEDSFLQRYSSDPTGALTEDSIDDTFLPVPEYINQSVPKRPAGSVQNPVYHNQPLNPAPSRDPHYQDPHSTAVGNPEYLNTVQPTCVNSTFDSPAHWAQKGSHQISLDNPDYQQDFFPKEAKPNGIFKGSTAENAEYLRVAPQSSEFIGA

Sequence of pEGFR (Tyr1068) in PC-9 cells (Ex19Del) (P00533 other isoform, or with tags, fused parts or gaps del 746-750): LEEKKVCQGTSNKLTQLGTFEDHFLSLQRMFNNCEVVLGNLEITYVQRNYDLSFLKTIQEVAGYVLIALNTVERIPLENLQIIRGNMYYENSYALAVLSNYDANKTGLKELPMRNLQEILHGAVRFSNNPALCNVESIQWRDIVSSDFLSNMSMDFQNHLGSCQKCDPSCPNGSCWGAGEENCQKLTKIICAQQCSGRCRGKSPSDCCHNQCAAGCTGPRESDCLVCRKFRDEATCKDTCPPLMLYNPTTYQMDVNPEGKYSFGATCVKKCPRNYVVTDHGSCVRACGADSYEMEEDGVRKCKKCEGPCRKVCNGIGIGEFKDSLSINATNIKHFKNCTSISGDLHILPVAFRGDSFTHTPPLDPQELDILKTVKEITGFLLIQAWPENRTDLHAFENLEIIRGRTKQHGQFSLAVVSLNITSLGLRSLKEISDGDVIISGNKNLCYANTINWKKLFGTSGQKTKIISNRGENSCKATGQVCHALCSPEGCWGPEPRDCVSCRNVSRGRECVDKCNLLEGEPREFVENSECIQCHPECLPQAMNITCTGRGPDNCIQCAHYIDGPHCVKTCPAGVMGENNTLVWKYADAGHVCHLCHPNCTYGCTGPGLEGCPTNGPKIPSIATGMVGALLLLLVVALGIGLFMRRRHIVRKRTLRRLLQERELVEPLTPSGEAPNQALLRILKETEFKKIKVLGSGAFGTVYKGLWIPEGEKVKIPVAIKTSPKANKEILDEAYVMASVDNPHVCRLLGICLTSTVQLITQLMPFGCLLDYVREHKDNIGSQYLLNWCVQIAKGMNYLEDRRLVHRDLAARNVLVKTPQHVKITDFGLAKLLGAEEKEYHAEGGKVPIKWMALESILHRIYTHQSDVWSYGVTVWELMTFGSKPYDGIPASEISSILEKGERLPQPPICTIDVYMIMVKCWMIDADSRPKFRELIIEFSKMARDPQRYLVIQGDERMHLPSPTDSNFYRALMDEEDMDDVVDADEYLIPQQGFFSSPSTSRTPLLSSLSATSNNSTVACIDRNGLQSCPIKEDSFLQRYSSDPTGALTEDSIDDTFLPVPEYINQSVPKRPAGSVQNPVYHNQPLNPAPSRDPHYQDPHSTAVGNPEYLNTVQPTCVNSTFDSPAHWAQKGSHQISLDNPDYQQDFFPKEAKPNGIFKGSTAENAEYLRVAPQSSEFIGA

Row | IC50 [1] | IC50 (EGFR (d746-750)) | IC50 (EGFR L858R) | SMILES
1 | 3.8 nM | 0.9 nM | 2.1 nM | COc1cc2ncnc(-c3cn(C)nc3-c3ccccc3)c2cc1NC(=O)C1(c2cccnc2)CC1 [Example 216, N-(7-methoxy-4-(1-methyl-3-phenyl-1H-pyrazol-4-yl)quinazolin-6-yl)-1-(pyridin-3-yl)cyclopropane-1-carboxamide]
2 | 1710 nM | 300 nM | 748 nM | Cn1cc(-c2ncnc3cc(C(F)(F)F)c(NC(=O)C45COCC4C5)nc23)c(-c2ccccc2)n1 (stereo not drawn) [Example 483, N-(4-(1-methyl-3-phenyl-1H-pyrazol-4-yl)-7-(trifluoromethyl)pyrido[3,2-d]pyrimidin-6-yl)-3-oxabicyclo[3.1.0]hexane-1-carboxamide]
3 | 2.3 nM | 1 nM | 1.8 nM | COc1cc2ncnc(-c3cn(C)nc3-c3ccccc3)c2cc1NC(=O)C(C)F (stereo not drawn) [Example 221, 2-fluoro-N-(7-methoxy-4-(1-methyl-3-phenyl-1H-pyrazol-4-yl)quinazolin-6-yl)propanamide]
4 | 1.3 nM | 0.8 nM | 2 nM | COc1cc2ncnc(-c3cn(C)nc3-c3ccccc3F)c2cc1NC(=O)C1(CN(C)C)CC1 [Example 188, 1-((dimethylamino)methyl)-N-(4-(3-(2-fluorophenyl)-1-methyl-1H-pyrazol-4-yl)-7-methoxyquinazolin-6-yl)cyclopropane-1-carboxamide]
5 | 1.5 nM | 0.7 nM | 2.2 nM | [2H]C([2H])([2H])Oc1cc2ncnc(-c3cn(C([2H])([2H])[2H])nc3-c3ccccc3)c2nc1NC(=O)C1(C(F)(F)F)CC1 [Example 486, N-(7-(methoxy-d3)-4-(1-(methyl-d3)-3-phenyl-1H-pyrazol-4-yl)pyrido[3,2-d]pyrimidin-6-yl)-1-(trifluoromethyl)cyclopropane-1-carboxamide]
6 | 1.9 nM | 1 nM | 2 nM | COc1cc2ncnc(-c3cn(C)nc3-c3ccccc3)c2nc1-c1ccc2c(c1)CNC2=O [Example 152, 5-(7-methoxy-4-(1-methyl-3-phenyl-1H-pyrazol-4-yl)pyrido[3,2-d]pyrimidin-6-yl) isoindolin-1-one]
7 | 1.2 nM | 0.9 nM | 1.7 nM | COc1cc2ncnc(-c3cn(C)nc3-c3ccccc3)c2cc1NC(=O)c1cn(C(C)C)nc1C [Example 217, 1-isopropyl-N-(7-methoxy-4-(1-methyl-3-phenyl-1H-pyrazol-4-yl)quinazolin-6-yl)-3-methyl-1H-pyrazole-4-carboxamide]
8 | 0.3 nM | 0.3 nM | 0.5 nM | COc1cc2ncnc(-c3cn(C)nc3-c3ccccc3)c2nc1O[C@@H](C)c1cscn1 (single isomer, unassigned) [Example 50, (S)-4-(1-((7-methoxy-4-(1-methyl-3-phenyl-1H-pyrazol-4-yl)pyrido[3,2-d]pyrimidin-6-yl)oxy)ethyl)thiazole or (R)-4-(1-((7-methoxy-4-(1-methyl-3-phenyl-1H-pyrazol-4-yl)pyrido[3,2-d]pyrimidin-6-yl)oxy)ethyl)thiazole]
9 | 1.8 nM | 0.6 nM | 1.8 nM | COc1cc2ncnc(-c3cn(C)nc3-c3ccccc3)c2nc1NC(=O)[C@@H]1C[C@H]2C[C@H]2N1C [Example 418, (1R,3S,5R)—N-(7-methoxy-4-(1-methyl-3-phenyl-1H-pyrazol-4-yl)pyrido[3,2-d]pyrimidin-6-yl)-2-methyl-2-azabicyclo[3.1.0]hexane-3-carboxamide]
10 | 3 nM | 1.6 nM | 2.9 nM | CCn1cc(-c2ncnc3cc(OC)c(NC(=O)[C@]45COC[C@H]4C5)cc23)c(-c2ccc(F)cc2)n1 [Example 335, (1S,5S)—N-(4-(1-ethyl-3-(4-fluorophenyl)-1H-pyrazol-4-yl)-7-methoxyquinazolin-6-yl)-3-oxabicyclo[3.1.0]hexane-1-carboxamide]
11 | 2.7 nM | 1 nM | 2.1 nM | COc1cc2ncnc(-c3cn(C)nc3-c3ccccc3)c2cc1NC(=O)c1ccnn1C(C)C [Example 218, 1-isopropyl-N-(7-methoxy-4-(1-methyl-3-phenyl-1H-pyrazol-4-yl)quinazolin-6-yl)-1H-pyrazole-5-carboxamide]
12 | 7.8 nM | 2.3 nM | 4.5 nM | COc1cc2ncnc(-c3cn(C)nc3-c3ccccc3)c2cc1NC(=O)C12COCC1C2 (stereo not drawn) [Example 278, N-(7-methoxy-4-(1-methyl-3-phenyl-1H-pyrazol-4-yl)quinazolin-6-yl)-3-oxabicyclo[3.1.0]hexane-1-carboxamide]
13 | 3.8 nM | 1.6 nM | 4.1 nM | COc1cc2ncnc(-c3cn(C)nc3-c3ccc(F)cc3F)c2nc1NC(=O)[C@@]12C[C@@H]1CN(C)C2 (single isomer, unassigned) [Example 423, (1S,5S)—N-(4-(3-(2,4-difluorophenyl)-1-methyl-1H-pyrazol-4-yl)-7-methoxypyrido[3,2-d]pyrimidin-6-yl)-3-methyl-3-azabicyclo[3.1.0]hexane-1-carboxamide or (1R,5R)—N-(4-(3-(2,4-difluorophenyl)-1-methyl-1H-pyrazol-4-yl)-7-methoxypyrido[3,2-d]pyrimidin-6-yl)-3-methyl-3-azabicyclo[3.1.0]hexane-1-carboxamide]
14 | 5.5 nM | 1.6 nM | 3.2 nM | COc1cc2ncnc(-c3cn(C)nc3-c3ccccc3)c2cc1O[C@@H]1CN(C)C[C@H]1F [Example 7, 6-(((3R,4R)-4-fluoro-1-methylpyrrolidin-3-yl)oxy)-7-methoxy-4-(1-methyl-3-phenyl-1H-pyrazol-4-yl)quinazoline]
15 | 5 nM | 1.2 nM | 4.2 nM | COc1cc2ncnc(-c3cn(C)nc3-c3ccccc3F)c2nc1NC(=O)C12CC(N(C)C)(C1)C2 [Example 403, 3-(dimethylamino)-N-(4-(3-(2-fluorophenyl)-1-methyl-1H-pyrazol-4-yl)-7-methoxypyrido[3,2-d]pyrimidin-6-yl)bicyclo[1.1.1]pentane-1-carboxamide]
16 | 2.3 nM | 1.2 nM | 53 nM | CCOc1cc2ncnc(-c3cn(C)nc3-c3ccccc3F)c2nc1NC(=O)[C@]12C[C@H]1CN(C)C2 (single isomer, unassigned) [Example 401, (1R,5R)—N-(7-ethoxy-4-(3-(2-fluorophenyl)-1-methyl-1H-pyrazol-4-yl)pyrido[3,2-d]pyrimidin-6-yl)-3-methyl-3-azabicyclo[3.1.0]hexane-1-carboxamide or (1S,5S)—N-(7-ethoxy-4-(3-(2-fluorophenyl)-1-methyl-1H-pyrazol-4-yl)pyrido[3,2-d]pyrimidin-6-yl)-3-methyl-3-azabicyclo[3.1.0]hexane-1-carboxamide]
17 | 5.9 nM | 2.2 nM | 6.1 nM | COc1cc2ncnc(-c3cn(C)nc3-c3ccccc3)c2nc1NC(=O)[C@@]12C[C@@H]1CN(C)C2 (single isomer, unassigned) [Example 392, (1S,5S)—N-(7-methoxy-4-(1-methyl-3-phenyl-1H-pyrazol-4-yl)pyrido[3,2-d]pyrimidin-6-yl)-3-methyl-3-azabicyclo[3.1.0]hexane-1-carboxamide or (1R,5R)—N-(7-methoxy-4-(1-methyl-3-phenyl-1H-pyrazol-4-yl)pyrido[3,2-d]pyrimidin-6-yl)-3-methyl-3-azabicyclo[3.1.0]hexane-1-carboxamide]
18 | 4.1 nM | 1.5 nM | 2.7 nM | CCOc1cc2ncnc(-c3cn(C)nc3-c3ccccc3)c2cc1NC(=O)c1cnn(C(F)(F)F)c1 [Example 232, N-(7-ethoxy-4-(1-methyl-3-phenyl-1H-pyrazol-4-yl)quinazolin-6-yl)-1-(trifluoromethyl)-1H-pyrazole-4-carboxamide]
19 | 4 nM | 2.2 nM | 3.8 nM | COc1cc2ncnc(-c3cn(C)nc3-c3ccccc3)c2cc1NC(=O)N1CCN(C)[C@@H](C)[C@H]1C (single isomer, unassigned) [Example 180, (2R,3S)—N-(7-methoxy-4-(1-methyl-3-phenyl-1H-pyrazol-4-yl)quinazolin-6-yl)-2,3,4-trimethylpiperazine-1-carboxamide or (2S,3R)—N-(7-methoxy-4-(1-methyl-3-phenyl-1H-pyrazol-4-yl)quinazolin-6-yl)-2,3,4-trimethylpiperazine-1-carboxamide]
20 | 38.6 nM | 1.8 nM | 1.4 nM | Cn1cc(-c2ccc3c(-c4cnn(C)c4-c4ccccc4)ncnc3c2)cn1 [Example 497]

Row | SMILES | IC50 [1] | IC50 (EGFR (d746-750)) | IC50 (EGFR L858R)
21 | COc1cc2ncnc(-c3cn(C)nc3-c3ccccc3)c2cc1OC(=O)N1CCN(C)CC1(C)C [Example 78, 7-methoxy-4-(1-methyl-3-phenyl-1H-pyrazol-4-yl)quinazolin-6-yl 2,2,4-trimethylpiperazine-1-carboxylate] | 8.1 nM | 2.4 nM | 7 nM
22 | COc1cc2ncnc(-c3cn(CC(F)F)nc3-c3ccccc3)c2cc1OC(=O)N1CCN(C)C[C@@H]1C [Example 70, 4-(1-(2,2-difluoroethyl)-3-phenyl-1H-pyrazol-4-yl)-7-methoxyquinazolin-6-yl (S)-2,4-dimethylpiperazine-1-carboxylate] | 1.6 nM | 1.7 nM | 2.7 nM
23 | COc1cc2ncnc(-c3cn(C)nc3-c3ccccc3)c2cc1OC(=O)N1[C@@H](C)CN(C)C[C@@H]1C [Example 79, 7-methoxy-4-(1-methyl-3-phenyl-1H-pyrazol-4-yl)quinazolin-6-yl (2S,6S)-2,4,6-trimethylpiperazine-1-carboxylate] | 9.6 nM | 3.1 nM | 6.5 nM
